The subject of one assay is Kuramochi cell line. In words: Cell Viability Assay (Cell Titer-Glo, 7 days). The assay is classed as cell-based. The conditions noted are these: Kuramochi cells, 7 days incubation, read-out: PARG Cell viability (IC50). In short, it runs like this:
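Kuramochi cells in RPMI with 10% FBS, seeded at 400 cells/well, were treated with a 9-point 3-fold dilution series in duplicate for 7 days at 37 °C, 5% CO2. Viability by CellTiter-Glo luminescence, normalised to DMSO and medium-only controls; IC50 from 4-parameter Hill fit.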

Assay [1] has as its target hPARG (C-terminal His6-tag) (Homo sapiens (Human), UniProt Q86W56). In words: PARG Enzymatic Activity Assay (HTRF). Type of assay: biochemical. The conditions noted are these: hPARG 65 pM final, biotinylated-NAD ribosylated PARP1 8 nM final. In short, it runs like this: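 E. coli-expressed enzyme (65 pM final) preincubated 60 min RT with compounds (10-point 4-fold dilution, duplicate) in 50 mM Tris pH 7.4, 3 mM EDTA, 1 mM DTT, 50 mM KCl, 0.01% Tween 20. Biotinylated-NAD ribosylated PARP1 substrate (8 nM final) reacted 10 min RT; Eu-streptavidin/anti-6HIS-XL665 HTRF read 665/620 nm after 60 min. IC50 from 4-parameter Hill fit.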
For orientation: Time-resolved FRET reads energy transfer from a long-lived donor to a nearby acceptor.

Our source for the IC50 values is patent publication US20250388589A1, “TRICYCLIC HETEROCYCLIC DERIVATIVES, COMPOSITIONS AND USES THEREOF” (Danatlas Pharmaceuticals Co., Ltd., priority 2022, published 2025).

Read-outs that look alike come from different tables or passages of the source.

hPARG (C-terminal His6-tag), sequence (Q86W56 whole entry): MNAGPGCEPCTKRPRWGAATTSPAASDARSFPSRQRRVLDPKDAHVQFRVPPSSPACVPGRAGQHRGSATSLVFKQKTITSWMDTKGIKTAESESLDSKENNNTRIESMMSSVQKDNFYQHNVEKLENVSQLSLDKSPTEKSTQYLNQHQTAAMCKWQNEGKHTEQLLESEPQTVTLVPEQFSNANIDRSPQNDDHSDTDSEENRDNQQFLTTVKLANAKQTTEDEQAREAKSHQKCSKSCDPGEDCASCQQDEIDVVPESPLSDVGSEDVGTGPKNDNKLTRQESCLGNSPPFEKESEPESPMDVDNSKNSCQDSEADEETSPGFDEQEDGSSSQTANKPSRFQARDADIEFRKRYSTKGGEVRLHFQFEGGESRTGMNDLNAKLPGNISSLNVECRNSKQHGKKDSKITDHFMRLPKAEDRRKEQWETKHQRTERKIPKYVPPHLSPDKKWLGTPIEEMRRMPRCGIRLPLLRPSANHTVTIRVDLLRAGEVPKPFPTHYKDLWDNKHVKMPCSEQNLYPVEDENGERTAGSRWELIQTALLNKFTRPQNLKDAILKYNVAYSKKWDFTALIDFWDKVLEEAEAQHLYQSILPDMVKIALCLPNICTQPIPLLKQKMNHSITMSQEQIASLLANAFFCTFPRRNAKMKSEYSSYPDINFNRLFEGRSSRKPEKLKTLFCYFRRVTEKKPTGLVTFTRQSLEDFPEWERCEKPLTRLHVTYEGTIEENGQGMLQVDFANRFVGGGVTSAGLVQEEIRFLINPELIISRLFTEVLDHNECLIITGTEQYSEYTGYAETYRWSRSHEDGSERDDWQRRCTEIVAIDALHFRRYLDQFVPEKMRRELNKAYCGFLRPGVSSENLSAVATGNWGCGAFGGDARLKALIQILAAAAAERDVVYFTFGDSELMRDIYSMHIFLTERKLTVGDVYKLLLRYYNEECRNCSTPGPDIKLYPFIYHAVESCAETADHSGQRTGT

With `CC1(NS(=O)(=O)c2ccc3c4c(C5CCN(C(=O)N6CC[C@H](O)C6)CC5)ncnc4n(-c4nnc(C(F)F)s4)c3c2)CC1` [Example 131, (S)-9-(5-(Difluoromethyl)-1,3,4-thiadiazol-2-yl)-4-(1-(3-hydroxypyrrolidine-1-carbonyl)piperidin-4-yl)-N-(1-methylcyclopropyl)-9H-pyrimido[4,5-b]indole-7-sulfonamide], the IC50 (in the assay on Kuramochi cell line (168 h); in assay [1]) was less than 100 nM each time.

Regarding `CC1(NS(=O)(=O)c2ccc3c4c(C5CCN(C(=O)N6CC[C@@H](O)C6)CC5)ncnc4n(-c4nnc(C(F)F)s4)c3c2)CC1` [Example 132, (R)-9-(5-(Difluoromethyl)-1,3,4-thiadiazol-2-yl)-4-(1-(3-hydroxypyrrolidine-1-carbonyl)piperidin-4-yl)-N-(1-methylcyclopropyl)-9H-pyrimido[4,5-b]indole-7-sulfonamide], the IC50 (in the assay with Kuramochi cell line (168 h); in assay [1]) was less than 100 nM throughout.

In the case of `CC1(NS(=O)(=O)c2ccc3c4c(C5CCN(C(=O)N6CCOCC6)CC5)ncnc4n(-c4nnc(C(F)F)s4)c3c2)CC1` [Example 133, 9-(5-(difluoromethyl)-1,3,4-thiadiazol-2-yl)-N-(1-methylcyclopropyl)-4-(1-(morpholine-4-carbonyl)piperidin-4-yl)-9H-pyrimido[4,5-b]indole-7-sulfonamide], the IC50 (in the assay with Kuramochi cell line (168 h); in assay [1]) was less than 100 nM each time.

As for `CO[C@H]1CCN(C(=O)N2CCC(c3ncnc4c3c3ccc(S(=O)(=O)NC5(C#N)CC5)cc3n4-c3nnc(C(F)F)s3)CC2)C1` [Example 134, (S)—N-(1-Cyanocyclopropyl)-9-(5-(difluoromethyl)-1,3,4-thiadiazol-2-yl)-4-(1-(3-methoxypyrrolidine-1-carbonyl)piperidin-4-yl)-9H-pyrimido[4,5-b]indole-7-sulfonamide], the IC50 (in the assay on Kuramochi cell line (168 h); in assay [1]) was less than 100 nM each time.

Take `CO[C@@H]1CCN(C(=O)N2CCC(c3ncnc4c3c3ccc(S(=O)(=O)NC5(C#N)CC5)cc3n4-c3nnc(C(F)F)s3)CC2)C1` [Example 135, (R)-N-(1-Cyanocyclo-propyl)-9-(5-(difluoromethyl)-1,3,4-thiadiazol-2-yl)-4-(1-(3-methoxypyrrolidine-1-carbonyl)piperidin-4-yl)-9H-pyrimido [4,5-b]indole-7-sulfonamide]: the IC50 (in the assay on Kuramochi cell line (168 h); in assay [1]) was less than 100 nM in each case.

On to `CN(C)[C@H]1CCN(C(=O)N2CCC(c3ncnc4c3c3ccc(S(=O)(=O)NC5(C#N)CC5)cc3n4-c3nnc(C(F)F)s3)CC2)C1` [Example 136, (S)-N-(1-Cyanocyclo-propyl)-9-(5-(difluoromethyl)-1,3,4-thiadiazol-2-yl)-4-(1-(3-(dimethylamino)pyrrolidine-1-carbonyl)piperidin-4-yl)-9H-pyrimido [4,5-b]indole-7-sulfonamide], for which the 50% inhibitory concentration (IC50) (in the assay with Kuramochi cell line (168 h); in assay [1]) was less than 100 nM each time.

On to `CN(C)[C@@H]1CCN(C(=O)N2CCC(c3ncnc4c3c3ccc(S(=O)(=O)NC5(C#N)CC5)cc3n4-c3nnc(C(F)F)s3)CC2)C1` [Example 137, (R)-N-(1-Cyanocyclo-propyl)-9-(5-(difluoromethyl)-1,3,4-thiadiazol-2-yl)-4-(1-(3-(dimethylamino)pyrrolidine-1-carbonyl)piperidin-4-yl)-9H-pyrimido[4,5-b] indole-7-sulfonamide], for which the IC50 – broadly, the midpoint of a concentration-inhibition curve – in the assay on Kuramochi cell line (168 h) is 100 to 1000 nM; in assay [1] it was less than 100 nM.

For `N#CC1(NS(=O)(=O)c2ccc3c4c(C5CCN(C(=O)N6CC(O)C6)CC5)ncnc4n(-c4nnc(C(F)F)s4)c3c2)CC1` [Example 138, N-(1-cyanocyclo-propyl)-9-(5-(difluoromethyl)-1,3,4-thiadiazol-2-yl)-4-(1-(3-hydroxy-azetidine-1-carbonyl)piperidin-4-yl)-9H-pyrimido [4,5-b]indole-7-sulfonamide], the IC50 was 100 to 1000 nM in the assay on Kuramochi cell line (168 h) and less than 100 nM in assay [1].

As to `N#CC1(NS(=O)(=O)c2ccc3c4c(C5CCN(C(=O)N6CCCO6)CC5)ncnc4n(-c4nnc(C(F)F)s4)c3c2)CC1` [Example 139], the IC50 (in the assay on Kuramochi cell line (168 h); in assay [1]) was less than 100 nM in each case.

As to `N#CC1(NS(=O)(=O)c2ccc3c4c(C5CCN(C(=O)N6CCOCC6)CC5)ncnc4n(-c4nnc(C(F)F)s4)c3c2)CC1` [Example 140, N-(1-cyanocyclo-propyl)-9-(5-(difluoromethyl)-1,3,4-thiadiazol-2-yl)-4-(1-(morpholine-4-carbonyl)piperidin-4-yl)-9H-pyrimido [4,5-b]indole-7-sulfonamide], the IC50 (in the assay on Kuramochi cell line (168 h); in assay [1]) was less than 100 nM each time.

`CN1CCN(C(=O)N2CCC(c3ncnc4c3c3ccc(S(=O)(=O)NC5(C#N)CC5)cc3n4-c3nnc(C(F)F)s3)CC2)CC1` [Example 141, N-(1-cyanocyclo-propyl)-9-(5-(difluoromethyl)-1,3,4-thiadiazol-2-yl)-4-(1-(4-methylpiperazine-1-carbonyl)piperidin-4-yl)-9H-pyrimido [4,5-b]indole-7-sulfonamide]: the IC50 in the assay on Kuramochi cell line (168 h) is 100 to 1000 nM; in assay [1], less than 100 nM.

For `CC(O)CN(C)C(=O)N1CCC(c2ncnc3c2c2ccc(S(=O)(=O)NC4(C#N)CC4)cc2n3-c2nnc(C(F)F)s2)CC1` (stereo not drawn) [Example 142, 4-(7-(N-(1-cyanocyclo-propyl)sulfamoyl)-9-(5-(difluoromethyl)-1,3,4-thiadiazol-2-yl)-9H-pyrimido[4,5-b]indol-4-yl)-N-(2-hydroxypropyl)-N-methylpiperidine-1-carboxamide], the IC50 (with Kuramochi cell line (168 h); in assay [1]) was less than 100 nM throughout.

Take `CN(CCO)C(=O)N1CCC(c2ncnc3c2c2ccc(S(=O)(=O)NC4(C#N)CC4)cc2n3-c2nnc(C(F)F)s2)CC1` [Example 143, 4-(7-(N-(1-cyanocyclo-propyl)sulfamoyl)-9-(5-(difluoromethyl)-1,3,4-thiadiazol-2-yl)-9H-pyrimido[4,5-b]indol-4-yl)-N-(2-hydroxyethyl)-N-methylpiperidine-1-carboxamide]: the IC50 in the assay on Kuramochi cell line (168 h) was 100 to 1000 nM; in assay [1], less than 100 nM.

As to `COCCN(C)C(=O)N1CCC(c2ncnc3c2c2ccc(S(=O)(=O)NC4(C#N)CC4)cc2n3-c2nnc(C(F)F)s2)CC1` [Example 144, 4-(7-(N-(1-cyanocyclo-propyl)sulfamoyl)-9-(5-(difluoromethyl)-1,3,4-thiadiazol-2-yl)-9H-pyrimido[4,5-b]indol-4-yl)-N-(2-methoxyethyl)-N-methylpiperidine-1-carboxamide], the concentration for half-maximal inhibition (IC50) (in the assay on Kuramochi cell line (168 h); in assay [1]) was less than 100 nM in each case.

Take `CON(C)C(=O)N1CCC(c2ncnc3c2c2ccc(S(=O)(=O)NC4(C#N)CC4)cc2n3-c2nnc(C(F)F)s2)CC1` [Example 145, 4-(7-(N-(1-Cyanocyclopropyl)sulfamoyl)-9-(5-(difluoromethyl)-1,3,4-thiadiazol-2-yl)-9H-pyrimido[4,5-b]indol-4-yl)-N-methoxy-N-methylpiperidine-1-carboxamide]: the IC50 (in the assay with Kuramochi cell line (168 h); in assay [1]) was less than 100 nM throughout.

With `CN1CCC(c2ncnc3c2c2ccc(S(=O)(=O)NC4(C#N)CC4)cc2n3-c2nnc(C(F)F)s2)CC1` [Example 146, N-(1-Cyanocyclopropyl)-9-(5-(difluoromethyl)-1,3,4-thiadiazol-2-yl)-4-(1-methylpiperidin-4-yl)-9H-pyrimido[4,5-b]indole-7-sulfonamide], the IC50 (with Kuramochi cell line (168 h); in assay [1]) was less than 100 nM throughout.

In the case of `CC(C)C(=O)N1CCC(c2ncnc3c2c2cc(F)c(S(=O)(=O)NC4(C)CC4)cc2n3-c2nnc(C(F)F)s2)CC1` [Example 148, 9-(5-(Difluoromethyl)-1,3,4-thiadiazol-2-yl)-6-fluoro-4-(1-isobutyrylpiperidin-4-yl)-N-(1-methylcyclopropyl)-9H-pyrimido[4,5-b]indole-7-sulfonamide], the IC50 (in the assay with Kuramochi cell line (168 h); in assay [1]) was less than 100 nM in each case.

As for `C[C@H]1CC(c2ncnc3c2c2cc(F)c(S(=O)(=O)NC4(C)CC4)cc2n3-c2nnc(C(F)F)s2)CCN1C(=O)N(C)C` (stereo partly drawn) [Example 149, (2S)-4-(9-(5-(difluoromethyl)-1,3,4-thiadiazol-2-yl)-6-fluoro-7-(N-(1-methylcyclopropyl)sulfamoyl)-9H-pyrimido[4,5-b]indol-4-yl)-N,N,2-trimethylpiperidine-1-carboxamide], the IC50 (in the assay with Kuramochi cell line; in assay [1]) was less than 100 nM in each case.

With `C[C@H]1CC(c2ncnc3c2c2ccc(S(=O)(=O)NC4(C#N)CC4)cc2n3-c2nnc(C(F)F)s2)CCN1` (stereo partly drawn) [Example 150, N-(1-Cyanocyclopropyl)-9-(5-(difluoromethyl)-1,3,4-thiadiazol-2-yl)-4-((2S)-2-methylpiperidin-4-yl)-9H-pyrimido[4,5-b]indole-7-sulfonamide], the IC50 in the assay with Kuramochi cell line (168 h) is 100 to 1000 nM; in assay [1], less than 100 nM.

For the molecule `CC(C)C(=O)N1CCC(c2ncnc3c2c2ccc(S(=O)(=O)NC4(C#N)CC4)cc2n3-c2nnc(C(F)F)s2)C[C@@H]1C` (stereo partly drawn) [Example 151, N-(1-Cyanocyclopropyl)-9-(5-(difluoromethyl)-1,3,4-thiadiazol-2-yl)-4-((2S)-1-isobutyryl-2-methylpiperidin-4-yl)-9H-pyrimido[4,5-b]indole-7-sulfonamide], the IC50 (with Kuramochi cell line (168 h); in assay [1]) was less than 100 nM throughout.

For the molecule `CN(C)C(=O)N1CC=C(c2ncnc3c2c2ccc(S(=O)(=O)NC4(C)CC4)cc2n3-c2nnc(C(F)F)s2)CC1` [Example 152, 4-(9-(5-(Difluoromethyl)-1,3,4-thiadiazol-2-yl)-7-(N-(1-methylcyclopropyl)sulfamoyl)-9H-pyrimido[4,5-b]indol-4-yl)-N,N-dimethyl-3,6-dihydropyridine-1(2H)-carboxamide], the IC50 (with Kuramochi cell line (168 h); in assay [1]) was less than 100 nM throughout.
